The supplement of paper PMC10307832

Legend:
Test in all cases: relative viability (nuclei count vs DMSO), 5 days (fraction); higher = more cells survive
[1] = compound: O=C(CCCCCCNC(=O)c1cnc(N(c2ccccc2)c2ccccc2)nc1)NO [Ricolinostat] + CC(=O)c1c(C)c2cnc(Nc3ccc(N4CCNCC4)cn3)nc2n(C2CCCC2)c1=O [Palbociclib] (partner 0.5 µM)
In short: (§1)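 Lung cancer cell lines in 1536-well plates were dosed by pin tool the day after seeding, either with one drug alone or with a fixed anchor-drug dose plus five library-drug doses (not always all listed) in √10 steps. After 5 days, cells were fixed and their nuclei stained in one step (final 0.05% Triton X-100, 1% formaldehyde, 1 ug/ml Hoechst), then counted on 4× images. Relative viability is the nuclei count in treated wells divided by that in vehicle wells. Values are medians of duplicate plates.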

TGX 221 + Palbociclib = compound: CC1=CN2C(=O)C=C(N=C2C(=C1)C(C)NC3=CC=CC=C3)N4CCOCC4 [TGX 221] + CC(=O)c1c(C)c2cnc(Nc3ccc(N4CCNCC4)cn3)nc2n(C2CCCC2)c1=O [Palbociclib] (partner 0.5 µM)
In short: as §1

[2] = compound: C1=CC=C(C(=C1)C2=CC=C(C=C2)C3=CSC4=C3C(=C(C(=O)N4)C#N)O)O + NC(=O)Nc1cc(-c2cccc(F)c2)sc1C(=O)N[C@H]1CCCNC1 [AZD7762] (partner 0.2 µM)
In short: as §1

[3] = compound: C1=CC=C(C(=C1)C2=CC=C(C=C2)C3=CSC4=C3C(=C(C(=O)N4)C#N)O)O + CC1(C)CCC(c2ccc(Cl)cc2)=C(CN2CCN(c3ccc(C(=O)NS(=O)(=O)c4ccc(N[C@H](CCN5CCOCC5)CSc5ccccc5)c(S(=O)(=O)C(F)(F)F)c4)cc3)CC2)C1 [Navitoclax] (partner 0.5 µM)
In short: as §1

| Cell Line | relative viability ([1]; first compound 0.08 µM) | relative viability ([1]; first compound 0.253 µM) | relative viability ([1]; first compound 0.8 µM) | relative viability ([1]; first compound 2.53 µM) | relative viability (TGX 221 + Palbociclib; first compound 0.08 µM) | relative viability (TGX 221 + Palbociclib; first compound 0.253 µM) | relative viability (TGX 221 + Palbociclib; first compound 0.8 µM) | relative viability (TGX 221 + Palbociclib; first compound 2.53 µM) | relative viability (TGX 221 + Palbociclib; first compound 8 µM) | relative viability ([2]; first compound 0.08 µM) | relative viability ([2]; first compound 0.253 µM) | relative viability ([2]; first compound 0.8 µM) | relative viability ([2]; first compound 2.53 µM) | relative viability ([2]; first compound 8 µM) | relative viability ([3]; first compound 0.08 µM) | relative viability ([3]; first compound 0.253 µM) | relative viability ([3]; first compound 0.8 µM) | relative viability ([3]; first compound 2.53 µM) | relative viability ([3]; first compound 8 µM) |
| --- | --- | --- | --- | --- | --- | --- | --- | --- | --- | --- | --- | --- | --- | --- | --- | --- | --- | --- | --- |
| NCI-H1666 | 0.741 | 0.664 | 0.644 | 0.598 | 0.679 | 0.599 | 0.638 | 0.667 | 0.674 | 0.807 | 0.894 | 0.8 | 0.796 | 0.706 | 0.946 | 1.03 | 0.876 | 0.944 | 0.879 |
| RERF-LC-KJ | 1.02 | 1.21 | 1.25 | 0.902 | 1.06 | 0.979 | 1.09 | 0.905 | 0.914 | 0.884 | 1.06 | 0.947 | 0.778 | 0.553 | 0.777 | 0.902 | 0.976 | 0.715 | 0.811 |
| ChaGo-K-1 | 0.93 | 0.947 | 0.901 | 0.837 | 0.853 | 0.835 | 0.916 | 0.921 | 0.935 | 0.834 | 0.936 | 0.904 | 0.92 | 0.838 | 0.642 | 0.833 | 0.909 | 1 | 1.37 |
